Starred links: 1 amine or outer side, 2 acyl side, 3 side chain; linkers in the order of their positions; H or OH if unused. Non-standard residues stand in square brackets, D forms with d. Residues, ends and D or L forms follow the SMILES beside them. *: point of attachment. X1 = O=C([C@@H]1CCNc2c(N[*:1])cc3cc(O)c(O)cc3[n+]21)[*:2]; dOrn(N5-OH,N5-CHO) = N[C@H](CCCN(O)C=O)C(=O)O; Butanoyl(2-oxo,4-COOH) = O=C(O)CCC(=O)C(=O)*; d(aThr) = C[C@@H](O)[C@@H](N)C(=O)O; X2 = O=C1[C@@H](N*)CCCN1[O-]; X3 = O=C1[C@@H](N*)CCCN1O; Orn = NCCC[C@H](N)C(=O)O
Tests used:
[1] = molecular target: T1, hNGAL (human lipocalin 2, parent wild type SEQ ID NO: 1) mutein SEQ ID NO: 19 (Homo sapiens, UniProt P80188, A60E/C107S/D97N/I61V/K154W/K93N/L123Q/L56V/L90R/Q48H/Q69G/R101E/R92H/S147K/S88E/W99S/Y120N/Y126M/Y152G/Y72P); assay: Solution binding ELISA
T1 construct: made in house; host or cells: E. coli
Experimental: (§5) The residual supernatants were discarded and 20 μl HRP-labeled anti-hNGAL antibody was added at a predetermined optimal concentration in PBS-T/BSA and incubated for 1 h at RT. […] After washing, 20 μl fluorogenic HRP substrate (QuantaBlu, Thermo) was added to each well, and the reaction was allowed to proceed for 15 to 60 minutes. The fluorescence intensity of every well on the plate was read using a fluorescence microplate reader (Tecan or Molecular Devices). […] Curve fitting was performed using GraphPad Prism 4 software.

[2] = molecular target: T2, hNGAL (human lipocalin 2, parent wild type SEQ ID NO: 1) mutein SEQ ID NO: 20 (Homo sapiens, UniProt P80188, A60T/C107S/D97H/K145I/K154W/K93M/L123T/L90R/N116I/Q48H/Q69G/R101E/R92I/S147R/S88D/W99Y/Y120N/Y126Q/Y152M/Y72N); conditions: solution binding ELISA
T2 construct: made in house; host or cells: E. coli
Experimental: as §5

[3] = molecular target: T3, hNGAL (human lipocalin 2, parent wild type SEQ ID NO: 1) mutein SEQ ID NO: 26 (Homo sapiens, UniProt P80188, A60E/C107S/D97N/E64D/I61V/K145N/K154W/K93N/L123V/L56V/L90R/N116K/Q48H/Q69G/R101E/R92H/S147K/S88E/W99S/Y120N/Y126M/Y152G/Y72P); assay: Solution binding ELISA
T3 construct: made in house; host or cells: E. coli
Experimental: as §5

[4] = molecular target: T4, hNGAL (human lipocalin 2, parent wild type SEQ ID NO: 1) mutein SEQ ID NO: 27 (Homo sapiens, UniProt P80188, A60T/C107S/D97N/E64D/I61V/K154W/K93N/L123Q/L56V/L90R/Q48H/Q69G/R101E/R92H/S147K/S88E/W99S/Y126M/Y152V/Y72P); assay: Solution binding ELISA
T4 construct: made in house; host or cells: E. coli
Experimental: as §5

[5] = molecular target: T5, hNGAL (human lipocalin 2, parent wild type SEQ ID NO: 1) mutein SEQ ID NO: 28 (Homo sapiens, UniProt P80188, A60T/C107S/D97N/E64D/I61V/K154W/L123Q/L56V/L90R/N116K/Q48H/Q69G/R101E/R92H/S147K/S88E/W99F/Y120H/Y126M/Y152A/Y72P); assay: Solution binding ELISA
T5 construct: made in house; host or cells: E. coli
Experimental: as §5

[6] = molecular target: T6, hNGAL (human lipocalin 2, parent wild type SEQ ID NO: 1) mutein SEQ ID NO: 29 (Homo sapiens, UniProt P80188, A60Q/C107S/D97N/E64D/I61V/K154W/K93N/L123H/L56V/L90R/Q48H/Q69G/R101E/R92H/S147K/S88E/Y120N/Y126M/Y152G/Y72P); assay: Solution binding ELISA
T6 construct: made in house; host or cells: E. coli
Experimental: as §5

[7] = molecular target: T7, hNGAL (human lipocalin 2, parent wild type SEQ ID NO: 1) mutein SEQ ID NO: 30 (Homo sapiens, UniProt P80188, A60T/C107S/D97H/K145I/K154W/K93F/L123M/L56V/L90R/Q48H/Q69G/R101D/R92I/S147R/S88D/W99Y/Y126Q/Y152I/Y72N); assay: Solution binding ELISA
T7 construct: made in house; host or cells: E. coli
Experimental: as §5

[8] = molecular target: T8, hNGAL (human lipocalin 2, parent wild type SEQ ID NO: 1) mutein SEQ ID NO: 31 (Homo sapiens, UniProt P80188, A60T/C107S/D97H/K145I/K154W/K93R/L123T/L56V/L90R/Q48H/Q69G/R101D/R92I/S147R/S88D/W99Y/Y126Q/Y152I/Y72N); assay: Solution binding ELISA
T8 construct: made in house; host or cells: E. coli
Experimental: as §5

[9] = molecular target: T9, hNGAL (human lipocalin 2, parent wild type SEQ ID NO: 1) mutein SEQ ID NO: 34 (Homo sapiens, UniProt P80188, A60T/C107S/D97H/K145I/K154W/K93R/L123T/L56V/L90R/N85D/Q48H/Q69G/R101D/R92I/S147R/S88D/T74A/W99Y/Y126Q/Y152I/Y72N); assay: Solution binding ELISA; conditions: Example 5
T9 construct: made in house; host or cells: E. coli
Experimental: as §5

[10] = molecular target: T10, Fusion molecule SEQ ID NO: 134 (hNGAL muteins SEQ ID NOs: 36, 16, 53 and 62) (Homo sapiens, UniProt P80188, A60T/C107S/D97H, form not given/K145I/K154W/K93R/L123T/L56V/L90R/N85D/Q69G/R101D/R92I/S147R/S88D/T74A/W99Y/Y126Q/Y152I/Y72N); assay: Solution binding ELISA; conditions: binding to target in solution, tracer 0.1 nM, Table 11
T10 construct: made in house
T10 sequence (P80188 with tags, fused parts or gaps with the stated changes, form open): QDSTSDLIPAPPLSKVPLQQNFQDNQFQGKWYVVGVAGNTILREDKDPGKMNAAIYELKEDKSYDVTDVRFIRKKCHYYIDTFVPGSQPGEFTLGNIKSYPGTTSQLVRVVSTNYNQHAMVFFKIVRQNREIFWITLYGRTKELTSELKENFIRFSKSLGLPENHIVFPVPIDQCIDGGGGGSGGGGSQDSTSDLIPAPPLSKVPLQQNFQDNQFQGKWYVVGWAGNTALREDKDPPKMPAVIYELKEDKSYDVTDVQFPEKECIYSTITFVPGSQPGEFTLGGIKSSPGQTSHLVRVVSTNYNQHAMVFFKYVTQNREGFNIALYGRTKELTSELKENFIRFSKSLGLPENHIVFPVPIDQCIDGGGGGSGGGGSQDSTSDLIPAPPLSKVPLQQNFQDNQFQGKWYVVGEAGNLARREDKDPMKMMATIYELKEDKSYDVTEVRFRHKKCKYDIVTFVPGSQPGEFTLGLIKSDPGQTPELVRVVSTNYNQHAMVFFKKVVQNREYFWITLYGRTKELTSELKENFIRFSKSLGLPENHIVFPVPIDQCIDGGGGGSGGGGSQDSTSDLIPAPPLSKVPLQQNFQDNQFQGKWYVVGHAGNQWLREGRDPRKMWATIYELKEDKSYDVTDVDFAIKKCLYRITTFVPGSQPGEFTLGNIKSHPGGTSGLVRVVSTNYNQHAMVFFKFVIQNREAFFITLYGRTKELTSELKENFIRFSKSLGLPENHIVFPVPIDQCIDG

[11] = molecular target: T11, hNGAL (human lipocalin 2, parent wild type SEQ ID NO: 1) mutein SEQ ID NO: 36 (Homo sapiens, UniProt P80188, A60T/C107S/D97H/K145I/K154W/K93R/L123T/L56V/L90R/N85D/Q69G/R101D/R92I/S147R/S88D/T74A/W99Y/Y126Q/Y152I/Y72N); assay: Surface plasmon resonance (Biacore T200); type: binding; conditions: SPR, 25° C., Table 2B
T11 construct: made in house; host or cells: E. coli
Experimental: (§6) In a Surface Plasmon Resonance (SPR) based assay a Biacore T200 instrument (GE Healthcare) was used to measure the binding affinity of muteins to pyoverdine I succinyl, -succinamide, -α-ketoglutaryl with complexed iron ion or to pyoverdine II succinyl, -succinamide, -α-ketoglutaryl with complexed iron ion or to pyoverdine III succinyl, -succinamide, -α-ketoglutaryl with complexed iron ion. Muteins selected for binding to pyoverdines and negative control (SEQ ID NO: 64) were biotinylated for 2 h at room temperature applying an appropriate excess of EZ-Link NHS-PEG4-Biotin (Thermo, Cat #21329) followed by separation of non-reacted Biotin using a Zebra Spin Desalting Plate (Thermo, Cat #21329) according to the manufactures instructions.
In the SPR affinity assay, biotinylated muteins and negative control were captured on a sensor chip CAP using the Biotin CAPture Kit (GE Healthcare): Sensor Chip CAP is pre-immobilized with an ssDNA oligo. Undiluted Biotin CAPture Reagent (streptavidin conjugated with the complementary ss-DNA oligo) was applied at a flow rate of 2 μl/min for 300 s. Subsequently, 1 μg/ml to 100 μg/mL of biotinylated muteins or negative control were applied for 300 s at a flow rate of 5 μl/min. […]
Applying a flow rate of 30 μl/min, a single cycle or multi cycle kinetics approach was used with a sample contact time of 120-180 s and a dissociation time of 900-2400 s. […] After ligand immobilization, for analysis using single cycle kinetics all 4-5 concentrations of Pvd were applied consecutively in ascending order before the dissociation was monitored. […] Data were evaluated with Biacore T200 Evaluation software (V 1.0). […]
In the SPR affinity assay, biotinylated muteins and negative control were captured on a sensor chip CAP using the Biotin CAPture Kit (GE Healthcare), wherein the Sensor Chip CAP is pre-immobilized with an ssDNA oligo. […] After ligand immobilization, the four concentrations of Pvd were applied consecutively in ascending order before the dissociation was monitored. […] Data were evaluated with Biacore T200 Evaluation software (V 1.0). […]

[12] = molecular target: T12, Fusion molecule SEQ ID NO: 134 (hNGAL muteins SEQ ID NOs: 36, 16, 53 and 62) (Homo sapiens, UniProt P80188, A60T/C107S/D97H, form not given/K145I/K154W/K93R/L123T/L56V/L90R/N85D/Q69G/R101D/R92I/S147R/S88D/T74A/W99Y/Y126Q/Y152I/Y72N); assay: Surface plasmon resonance (Biacore T200); type: binding; conditions: Biacore, 25° C., Table 13
T12 construct: made in house; host or cells: HEK293
T12 sequence (P80188 with tags, fused parts or gaps with the stated changes, form open): as above

[13] = molecular target: T13, hNGAL (human lipocalin 2, parent wild type SEQ ID NO: 1) mutein SEQ ID NO: 56 (Homo sapiens, UniProt P80188, A60F/C107S/D97A/I61H/K145G/K154V/K93A/L123M/L56M/L90P/N116A/Q48H/Q69S/R101I/R92W/S147W/S88H/W99K/Y120G/Y126W/Y152T/Y72P); assay: Solution binding ELISA
T13 construct: made in house; host or cells: E. coli
Experimental: as §5

[14] = molecular target: T14, hNGAL (human lipocalin 2, parent wild type SEQ ID NO: 1) mutein SEQ ID NO: 57 (Homo sapiens, UniProt P80188, A60Y/C107S/D97R/I61W/K145L/K154N/K93R/L123Q/L56V/L90R/N116P/Q48H/Q69A/R101W/R92W/S147R/S88D/W99D/Y120E/Y126R/Y152A); assay: Solution binding ELISA
T14 construct: made in house; host or cells: E. coli
Experimental: as §5

[15] = molecular target: lipocalin negative control SEQ ID NO: 64 (Homo sapiens, UniProt P80188, C107S/Q48H); assay: Surface plasmon resonance (Biacore T200); type: binding; conditions: SPR, analyte at 200 nM
Experimental: as §6
In the SPR affinity assay, biotinylated muteins and negative control were captured on a sensor chip CAP using the Biotin CAPture Kit (GE Healthcare): Sensor Chip CAP is pre-immobilized with an ssDNA oligo. Undiluted Biotin CAPture Reagent (streptavidin conjugated with the complementary ss-DNA oligo) was applied at a flow rate of 2 μl/min for 300 s. Subsequently, 1 μg/ml to 100 μg/mL of biotinylated muteins or negative control were applied for 300 s at a flow rate of 5 μl/min. The reference channel was loaded with Biotin CAPture Reagent only.
Applying a flow rate of 30 μl/min, a single cycle or multi cycle kinetics approach was used with a sample contact time of 120-180 s and a dissociation time of 900-2400 s. […] After ligand immobilization, for analysis using single cycle kinetics all 4-5 concentrations of Pvd were applied consecutively in ascending order before the dissociation was monitored. For analysis using multi cycle kinetics 4 dilutions of Pvd were applied, each followed a dissociation phase. All measurements were performed at 25° C. […] Data were evaluated with Biacore T200 Evaluation software (V 1.0). Double referencing was used. A 1:1 Binding model was used to fit the raw data.
Subsequently, 5 μg/mL of mutein or the negative control solution in 10 mM acetate pH 4.0 was applied at a flow rate of 10 μl/min until a high immobilization level of approximately 2000 RU was achieved. Residual activated groups were quenched with ethanolamine. The reference channels were treated with EDC/NHS following ethanolamine (blank immobilization).
In the SPR affinity assay, biotinylated muteins and negative control were captured on a sensor chip CAP using the Biotin CAPture Kit (GE Healthcare), wherein the Sensor Chip CAP is pre-immobilized with an ssDNA oligo. Undiluted Biotin CAPture Reagent (streptavidin conjugated with the complementary ss-DNA oligo) was applied at a flow rate of 2 μl/min for 300 s. Subsequently, 20 μg/ml to 100 μg/mL of biotinylated muteins or fusion molecule negative control were applied for 300 s at a flow rate of 5 μl/min. The reference channel was loaded with Biotin CAPture Reagent only. To determine the binding affinity, four dilutions of the respective Pvd were prepared in HBS-EP+ buffer (GE Healthcare) and applied to the chip surface. Applying a flow rate of 30 μl/min, a single cycle kinetics approach was used with a sample contact time of 180 s and a dissociation time of 1800-2400 s. […] After ligand immobilization, the four concentrations of Pvd were applied consecutively in ascending order before the dissociation was monitored. All measurements were performed at 25° C. […] Data were evaluated with Biacore T200 Evaluation software (V 1.0). Double referencing was preformed. A 1:1 binding model was used to fit the raw data.

[16] = molecular target: hNGAL muteins from affinity optimization of SEQ ID NO: 55 (Homo sapiens, UniProt P80188); assay: Solution binding ELISA
Experimental: (§1) Solution binding of muteins was assayed by a “Solution binding ELISA”, the principle of which was as follows: a constant concentration of the tested mutein was incubated with variable concentrations of ligands (Pvd I s, sa, αKG+/−Fe/Pvd II s, sa, αKG+/−Fe/Pvd III s, sa, αKG+/−Fe/Pch+/−Fe) for 1 h. After this pre-incubation in solution, an aliquot of the mutein/ligand mixture was transferred to an ELISA plate with biotinylated Pvd I s (+Fe), Pvd II s (+Fe), Pvd III s (+Fe) or Pch immobilized via Neutravidin to measure the remaining concentration of free muteins. The concentration of free (non ligand-bound) muteins was determined via a quantitative ELISA setup.
(§2) In detail, a 384-well plate suitable for fluorescence measurements (Greiner FLUOTRAC™ 600, black flat bottom, high-binding) was coated with 20 μl of Neutravidin at a concentration of 5 μg/ml in PBS overnight at 4 C. After washing, the Neutravidin-coated wells were blocked with 100 μl blocking buffer containing 0.1% Tween 20 and 2% BSA (PBS-T/BSA) for 1 h at room temperature.
(§3) A fixed concentration of muteins was incubated in solution with varying concentrations of ligand (Pvd I s, sa, αKG+/−Fe/Pvd II s, sa, αKG+/−Fe/Pvd III s, sa, αKG+/−Fe/Pch+/−Fe), using a suitable starting concentration which was serially diluted at a 1:3 ratio down to the picomolar range in PBS-T/BSA. […] To allow for transformation of ELISA readout results into absolute free mutein concentrations, a standard curve containing varying concentrations of muteins was prepared in PBS-T/BSA and incubated for 20 min on the same ELISA plate as well.
(§4) The residual supernatants were discarded and 20 μl HRP-labeled anti-hNGAL antibody was added at a predetermined optimal concentration in PBS-T/BSA and incubated for 1 h at RT. […] The fluorescence intensity of every well on the plate was read using a fluorescence microplate reader (Tecan or Molecular Devices). To evaluate the data, free mutein concentration, c(mutein)free, was calculated based on the standard curve results, and plotted versus ligand concentration, c(Ligand). […]

[17] = molecular target: hNGAL muteins from affinity optimization of SEQ ID NO: 56 (Homo sapiens, UniProt P80188); assay: Solution binding ELISA
Experimental: as §1, §2, §3, §4

T11 sequence (P80188 21-198 with the stated changes): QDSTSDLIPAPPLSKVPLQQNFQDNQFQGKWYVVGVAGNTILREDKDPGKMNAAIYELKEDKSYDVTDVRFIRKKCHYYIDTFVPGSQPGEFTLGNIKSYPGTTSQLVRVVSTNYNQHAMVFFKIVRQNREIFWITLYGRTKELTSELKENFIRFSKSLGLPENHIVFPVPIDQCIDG
T13 sequence (P80188 21-198 with the stated changes): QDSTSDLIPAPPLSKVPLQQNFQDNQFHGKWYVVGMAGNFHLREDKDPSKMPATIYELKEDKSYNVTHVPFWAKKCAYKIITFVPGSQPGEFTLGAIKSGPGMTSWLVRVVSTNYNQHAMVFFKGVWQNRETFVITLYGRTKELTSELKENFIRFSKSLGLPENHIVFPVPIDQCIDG
T9 sequence (P80188 other isoform, or with tags, fused parts or gaps with the stated changes): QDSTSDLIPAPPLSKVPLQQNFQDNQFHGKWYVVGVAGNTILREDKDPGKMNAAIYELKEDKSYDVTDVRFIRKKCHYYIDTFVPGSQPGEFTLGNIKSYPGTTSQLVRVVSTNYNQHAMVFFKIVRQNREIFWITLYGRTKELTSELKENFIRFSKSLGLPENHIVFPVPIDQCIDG
T7 sequence (P80188 other isoform, or with tags, fused parts or gaps with the stated changes): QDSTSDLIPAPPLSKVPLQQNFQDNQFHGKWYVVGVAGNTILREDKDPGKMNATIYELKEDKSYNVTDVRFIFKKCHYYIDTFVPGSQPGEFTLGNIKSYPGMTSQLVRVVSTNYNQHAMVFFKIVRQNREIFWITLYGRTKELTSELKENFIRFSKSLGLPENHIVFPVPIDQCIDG
T2 sequence (P80188 other isoform, or with tags, fused parts or gaps with the stated changes): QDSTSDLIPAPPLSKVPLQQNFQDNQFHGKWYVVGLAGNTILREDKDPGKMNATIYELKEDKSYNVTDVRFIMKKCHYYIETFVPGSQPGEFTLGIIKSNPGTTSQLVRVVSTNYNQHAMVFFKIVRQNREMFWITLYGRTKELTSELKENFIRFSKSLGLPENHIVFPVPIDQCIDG
T6 sequence (P80188 other isoform, or with tags, fused parts or gaps with the stated changes): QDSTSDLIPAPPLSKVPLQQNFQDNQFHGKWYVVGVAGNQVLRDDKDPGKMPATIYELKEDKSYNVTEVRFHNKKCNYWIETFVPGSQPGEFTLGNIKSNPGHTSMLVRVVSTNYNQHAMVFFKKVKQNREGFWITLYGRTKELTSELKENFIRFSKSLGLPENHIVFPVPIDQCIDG
T14 sequence (P80188 21-198 with the stated changes): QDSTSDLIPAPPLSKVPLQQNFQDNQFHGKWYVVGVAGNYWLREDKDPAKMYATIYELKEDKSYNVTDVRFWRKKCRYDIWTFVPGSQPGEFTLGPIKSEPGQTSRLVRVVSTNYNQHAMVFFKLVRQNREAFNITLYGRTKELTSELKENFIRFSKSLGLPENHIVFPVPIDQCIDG
T3 sequence (P80188 other isoform, or with tags, fused parts or gaps with the stated changes): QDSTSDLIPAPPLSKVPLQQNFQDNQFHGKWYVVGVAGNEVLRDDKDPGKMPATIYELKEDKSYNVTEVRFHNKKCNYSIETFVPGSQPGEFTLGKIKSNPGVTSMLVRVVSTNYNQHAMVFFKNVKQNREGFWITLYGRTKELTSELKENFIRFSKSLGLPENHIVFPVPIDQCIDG
T5 sequence (P80188 other isoform, or with tags, fused parts or gaps with the stated changes): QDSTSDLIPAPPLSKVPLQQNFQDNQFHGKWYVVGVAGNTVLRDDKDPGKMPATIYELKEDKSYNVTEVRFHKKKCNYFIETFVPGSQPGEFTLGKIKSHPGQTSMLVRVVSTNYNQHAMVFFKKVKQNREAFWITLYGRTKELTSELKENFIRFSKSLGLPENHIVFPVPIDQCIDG
T4 sequence (P80188 other isoform, or with tags, fused parts or gaps with the stated changes): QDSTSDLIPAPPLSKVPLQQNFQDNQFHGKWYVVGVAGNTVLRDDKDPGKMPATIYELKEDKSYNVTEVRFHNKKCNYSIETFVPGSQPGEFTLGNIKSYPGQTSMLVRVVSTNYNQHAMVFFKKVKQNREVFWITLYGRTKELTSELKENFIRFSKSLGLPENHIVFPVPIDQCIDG
T8 sequence (P80188 other isoform, or with tags, fused parts or gaps with the stated changes): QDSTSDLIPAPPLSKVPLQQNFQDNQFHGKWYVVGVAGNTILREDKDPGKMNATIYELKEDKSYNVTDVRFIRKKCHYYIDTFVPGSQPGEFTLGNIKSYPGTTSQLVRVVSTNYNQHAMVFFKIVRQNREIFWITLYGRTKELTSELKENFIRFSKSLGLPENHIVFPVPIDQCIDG
T1 sequence (P80188 other isoform, or with tags, fused parts or gaps with the stated changes): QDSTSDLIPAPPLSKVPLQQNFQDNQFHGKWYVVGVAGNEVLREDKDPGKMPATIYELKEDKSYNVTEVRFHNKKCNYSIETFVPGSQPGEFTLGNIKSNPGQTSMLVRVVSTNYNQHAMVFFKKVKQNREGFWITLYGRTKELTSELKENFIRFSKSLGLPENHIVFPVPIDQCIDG
Chain of hNGAL muteins from affinity optimization of SEQ ID NO: 55 (P80188 21-198, stated change not applied): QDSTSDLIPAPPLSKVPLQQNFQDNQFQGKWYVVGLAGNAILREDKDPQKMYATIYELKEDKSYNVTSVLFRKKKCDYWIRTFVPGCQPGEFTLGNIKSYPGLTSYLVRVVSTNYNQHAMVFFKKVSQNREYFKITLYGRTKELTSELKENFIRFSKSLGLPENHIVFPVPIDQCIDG
Chain of lipocalin negative control SEQ ID NO: 64 (P80188 21-198 Q48H/C107S): as the sequence (P80188 21-198, stated change not applied) above, with Q28H, C87S counted along it
Chain of hNGAL muteins from affinity optimization of SEQ ID NO: 56 (P80188 21-198, stated change not applied): as the sequence (P80188 21-198, stated change not applied) above

C[C@@H](O)[C@@H](NC(=O)CNC(=O)[C@H](CCCN)NC(=O)[C@@H](CCCN([O-])C=O)NC(=O)[C@@H](CO)NC(=O)[C@@H]1CCNc2c(NC(=O)C(=O)CCC(=O)O)cc3cc([O-])c([O-])cc3[n+]21)C(=O)N[C@@H](CO)C(=O)N[C@H]1CCCN([O-])C1=O.[Fe+3] [Pvd II aKG (+Fe), Pvd type II α-ketoglutaryl] ({Butanoyl(2-oxo,4-COOH)}-[X1][dS][dOrn(N5-OH,N5-CHO)][Orn]G[d(aThr)]S-X2)
IC50 [1]: 21 nM
IC50 [2]: 85 nM
IC50 [3]: 1.3 nM
IC50 [4]: 1.97 nM
IC50 [5]: 2.25 nM
IC50 [6]: 1.9 nM
IC50 [7]: 3 nM
IC50 [8]: 1.1 nM
IC50 [9]: 1.6 nM
IC50 [10]: 0.88 nM
Kd [11]: 1.97 nM
koff [11]: 5.62e-05 s⁻¹
kon [11]: 28600 M⁻¹ s⁻¹
Kd [12]: 1.19 nM

C[C@@H](O)[C@@H](NC(=O)CNC(=O)[C@H](CCCN)NC(=O)[C@@H](CCCN(O)C=O)NC(=O)[C@@H](CO)NC(=O)[C@@H]1CCNc2c(NC(=O)C(=O)CCC(=O)O)cc3cc(O)c(O)cc3[n+]21)C(=O)N[C@@H](CO)C(=O)N[C@H]1CCCN(O)C1=O [Pvd II aKG (−Fe), Pvd type II α-ketoglutaryl] ({Butanoyl(2-oxo,4-COOH)}-[X1][dS][dOrn(N5-OH,N5-CHO)][Orn]G[d(aThr)]S-X3)
IC50 [1]: 34 nM
IC50 [2]: 89 nM
IC50 [3]: 0.75 nM
IC50 [4]: 1.4 nM
IC50 [5]: 1.65 nM
IC50 [6]: 1.6 nM
IC50 [7]: 2.85 nM
IC50 [8]: 0.64 nM
IC50 [9]: 1.2 nM
IC50 [10]: 0.81 nM
Kd [12]: 3.27 nM

CN1C([C@H]2CSC(c3ccccc3O)=N2)SC[C@H]1C(=O)O.[Fe+3] (stereo partly drawn) [pch (+Fe), pyochelin]
affinity (in words) [13]: two- to three digit nM affinity
affinity (in words) [14]: two- to three digit nM affinity
binding [15]: absence of binding
affinity (in words) [16]: single digit nM affinity
affinity (in words) [17]: no or weak affinity

CN1C([C@H]2CSC(c3ccccc3O)=N2)SC[C@H]1C(=O)O (stereo partly drawn) [pch (−Fe), pyochelin]
affinity (in words) [13]: weak affinity or not at all
affinity (in words) [14]: weak affinity or not at all
improved affinity ([16]; compared with SEQ ID NO: 55): more than 75 fold

Reference: US10947284B2, “Fusion molecules” (Pieris Pharmaceuticals GMBH, priority 2015, dated 2021)
